In patent publication US20240239775A1, “FXR REGULATOR, PREPARATION METHOD THEREFOR, PHARMACEUTICAL COMPOSITION THEREOF AND USE THEREOF” (QINGDAO RUIJI MEDICAL TECHNOLOGY CO., LTD., priority 2021, published 2024):
pIC50: −log10 of the molar value.

biological target: T1, FXR (Homo sapiens, UniProt Q96RI1); test: FXR antagonist screening by TR-FRET (LanthaScreen TR-FRET FXR co-activation assay kit); type: biochemical; conditions: Table 1.1, FXR antagonistic activity; TR-FRET with CDCA; geometric means of at least two independent runs
T1 construct: 5 μL of 20 nM FXR-LBD Complete Coregulator buffer G; purchased ThermoFisher PV4833
T1 sequence (Q96RI1 262-486 limits assumed): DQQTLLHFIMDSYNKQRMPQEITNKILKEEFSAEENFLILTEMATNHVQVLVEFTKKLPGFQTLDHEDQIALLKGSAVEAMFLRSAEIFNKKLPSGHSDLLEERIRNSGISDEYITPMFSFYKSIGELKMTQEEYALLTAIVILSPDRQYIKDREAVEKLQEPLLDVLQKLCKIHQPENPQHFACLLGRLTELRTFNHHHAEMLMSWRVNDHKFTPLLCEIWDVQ
Method in brief: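 FXR-LBD (20 nM working solution) mixed with compound, CDCA (200 μM working solution) as agonist, Fluorescein-SRC2-2 and Tb-anti-GST antibody in Coregulator buffer G; 10 h at room temperature. Coactivator recruitment read by TR-FRET, triplicate wells.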

| Structure (SMILES) | pIC50 |
| --- | --- |
| CCOC(=O)c1oc2ccc(S(=O)(=O)N(CCc3ccccc3)Cc3ccc(C(=O)OC)cc3)cc2c1C [Example M4-39, ethyl 3-methyl-5-(N-(4-(methoxycarbonyl)benzyl)-N-phenethylsulfamoyl)benzofuran-2-carboxylate] | 4.00 to 4.30 |
| CCOC(=O)c1oc2ccc(S(=O)(=O)N(CCc3ccccc3)Cc3ccc(C(=O)OC(C)(C)C)cc3)cc2c1C [Example M4-40, ethyl 3-methyl-5-(N-(4-(tert-butoxycarbonyl)benzyl)-N-phenethylsulfamoyl)benzofuran-2-carboxylate] | 4.00 to 4.30 |
| CCOC(=O)c1oc2ccc(S(=O)(=O)N(CCc3ccccc3)Cc3ccc(CC(=O)OC)cc3)cc2c1C [Example M4-41, ethyl 3-methyl-5-(N-(4-(2-methoxy-2-oxoethyl)benzyl)-N-phenethylsulfamoyl)benzofuran-2-carboxylate] | 4.00 to 4.30 |
| CCOC(=O)c1oc2ccc(S(=O)(=O)N(CCc3ccccc3)Cc3ccc(/C=C/C(=O)OC)cc3)cc2c1C [Example M4-42, (E)ethyl-3-methyl-5-(N-(4-(3-methoxy-3-oxoprop-1-en-1-yl)benzyl)-N-phenethylsulfamoyl)benzofuran-2-carboxylate] | 4.00 to 4.30 |
| CCOC(=O)c1oc2ccc(S(=O)(=O)N(CCc3ccccc3)Cc3cccc4ccccc34)cc2c1C [Example M4-43, ethyl 3-methyl-5-(N-(naphthalen-1-ylmethyl)-N-phenethylsulfamoyl)benzofuran-2-carboxylate] | 4.00 to 4.30 |
| CCOC(=O)c1oc2ccc(S(=O)(=O)N(CCc3ccccc3)Cc3cccc4cccnc34)cc2c1C [Example M4-44, ethyl 3-methyl-5-(N-(quinolin-8-ylmethyl)-N-phenethylsulfamoyl)benzofuran-2-carboxylate] | 4.00 to 4.30 |
| CCOC(=O)c1oc2ccc(S(=O)(=O)N(CCc3ccccc3)Cc3ccc4ccccc4c3)cc2c1C [Example M4-45, ethyl 3-methyl-5-(N-(naphthalen-2-ylmethyl)-N-phenethylsulfamoyl)benzofuran-2-carboxylate] | 4.00 to 4.30 |
| CCOC(=O)c1oc2ccc(S(=O)(=O)N(CCc3ccccc3)Cc3c(F)cccc3F)cc2c1C [Example M4-46, ethyl 3-methyl-5-(N-(2,6-difluorobenzyl)-N-phenethylsulfamoyl)benzofuran-2-carboxylate] | 4.00 to 4.30 |
| CCOC(=O)c1oc2ccc(S(=O)(=O)N(CCc3ccccc3)Cc3c(F)cccc3Cl)cc2c1C [Example M4-47, ethyl 3-methyl-5-(N-(2-fluoro-6-chlorobenzyl)-N-phenethylsulfamoyl)benzofuran-2-carboxylate] | 4.00 to 4.30 |
| CCOC(=O)c1oc2ccc(S(=O)(=O)N(CCc3ccccc3)Cc3c(F)cccc3C(F)(F)F)cc2c1C [Example M4-48, ethyl 3-methyl-5-(N-(2-fluoro-6-(trifluoromethyl)benzyl)-N-phenethylsulfamoyl)benzofuran-2-carboxylate] | 4.00 to 4.30 |
| CCOC(=O)c1oc2ccc(S(=O)(=O)N(CCc3ccccc3)Cc3c(Cl)cccc3Cl)cc2c1C [Example M4-49, ethyl 3-methyl-5-(N-(2,6-dichlorobenzyl)-N-phenethylsulfamoyl)benzofuran-2-carboxylate] | 4.00 to 4.30 |
| CCOC(=O)c1oc2ccc(S(=O)(=O)N(CCc3ccccc3)Cc3c(C)cccc3C)cc2c1C [Example M4-50, ethyl 3-methyl-5-(N-(2,6-dimethylbenzyl)-N-phenethylsulfamoyl)benzofuran-2-carboxylate] | 4.00 to 4.30 |
| CCOC(=O)c1oc2ccc(S(=O)(=O)N(CCc3ccccc3)Cc3ccc(F)cc3F)cc2c1C [Example M4-51, ethyl 3-methyl-5-(N-(2,4-difluorobenzyl)-N-phenethylsulfamoyl)benzofuran-2-carboxylate] | 4.00 to 4.30 |
| CCOC(=O)c1oc2ccc(S(=O)(=O)N(CCc3ccccc3)Cc3ccc(Cl)cc3F)cc2c1C [Example M4-52, ethyl 3-methyl-5-(N-(2-fluoro-4-chlorobenzyl)-N-phenethylsulfamoyl)benzofuran-2-carboxylate] | 4.00 to 4.30 |
| CCOC(=O)c1oc2ccc(S(=O)(=O)N(CCc3ccccc3)Cc3ccc(Br)cc3F)cc2c1C [Example M4-53, ethyl 3-methyl-5-(N-(2-fluoro-4-bromobenzyl)-N-phenethylsulfamoyl)benzofuran-2-carboxylate] | 4.00 to 4.30 |
| CCOC(=O)c1oc2ccc(S(=O)(=O)N(CCc3ccccc3)Cc3ccc(C#N)cc3F)cc2c1C [Example M4-54, ethyl 3-methyl-5-(N-(2-fluoro-4-cyanobenzyl)-N-phenethylsulfamoyl)benzofuran-2-carboxylate] | 4.00 to 4.30 |
| CCOC(=O)c1oc2ccc(S(=O)(=O)N(CCc3ccccc3)Cc3ccc(C(F)(F)F)cc3F)cc2c1C [Example M4-55, ethyl 3-methyl-5-(N-(2-fluoro-4-(trifluoromethyl)benzyl)-N-phenethylsulfamoyl)benzofuran-2-carboxylate] | 4.00 to 4.30 |
| CCOC(=O)c1oc2ccc(S(=O)(=O)N(CCc3ccccc3)Cc3ccc(F)cc3Cl)cc2c1C [Example M4-56, ethyl 3-methyl-5-(N-(2-chloro-4-fluorobenzyl)-N-phenethylsulfamoyl)benzofuran-2-carboxylate] | 4.00 to 4.30 |
| CCOC(=O)c1oc2ccc(S(=O)(=O)N(CCc3ccccc3)Cc3ccc(F)cc3C(F)(F)F)cc2c1C [Example M4-57, ethyl 3-methyl-5-(N-(2-(trifluoromethyl)-4-fluorobenzyl)-N-phenethylsulfamoyl)benzofuran-2-carboxylate] | 4.00 to 4.30 |
| CCOC(=O)c1oc2ccc(S(=O)(=O)N(CCc3ccccc3)Cc3ccc(C(F)(F)F)cc3C(F)(F)F)cc2c1C [Example M4-58, ethyl 3-methyl-5-(N-(2,4-bis(trifluoromethyl)benzyl)-N-phenethylsulfamoyl)benzofuran-2-carboxylate] | 4.00 to 4.30 |
| CCOC(=O)c1oc2ccc(S(=O)(=O)N(CCc3ccccc3)Cc3ccc(Br)cc3C(F)(F)F)cc2c1C [Example M4-59, ethyl 3-methyl-5-(N-(2-trifluoromethyl-4-bromobenzyl)-N-phenethylsulfamoyl)benzofuran-2-carboxylate] | 4.00 to 4.30 |
| CCOC(=O)c1oc2ccc(S(=O)(=O)N(CCc3ccccc3)Cc3ccc(Cl)cc3Cl)cc2c1C [Example M4-60, ethyl 3-methyl-5-(N-(2,4-dichlorobenzyl)-N-phenethylsulfamoyl)benzofuran-2-carboxylate] | 4.00 to 4.30 |
| CCOC(=O)c1oc2ccc(S(=O)(=O)N(CCc3ccccc3)Cc3cc(F)ccc3C)cc2c1C [Example M4-61, ethyl 3-methyl-5-(N-(2-methyl-5-fluorobenzyl)-N-phenethylsulfamoyl)benzofuran-2-carboxylate] | 4.00 to 4.30 |
| CCOC(=O)c1oc2ccc(S(=O)(=O)N(CCc3ccccc3)Cc3c(F)cc(Cl)cc3F)cc2c1C [Example M4-62, ethyl 3-methyl-5-(N-(2,6-difluoro-4-chlorobenzyl)-N-phenethylsulfamoyl)benzofuran-2-carboxylate] | 4.00 to 4.30 |
| CCOC(=O)c1oc2ccc(S(=O)(=O)N(CCc3ccccc3)Cc3ccc(-c4ccccc4)cc3)cc2c1C [Example M4-82] | 4.00 to 4.30 |
| CCOC(=O)c1oc2ccc(S(=O)(=O)N(CCc3ccccc3)Cc3ccc(-c4ccccc4C#N)cc3)cc2c1C [Example M4-83, ethyl 3-methyl-5-(N-((2′-cyano-[1,1′-biphenyl]-4-yl)methyl)-N-phenethylsulfamoyl)benzofuran-2-carboxylate] | 4.00 to 4.30 |
